Experimental data published in patent US8476320B2, “Formulations for parenteral administration of amino-substituted (E)-2, 6-dialkoxystyryl 4-substituted benzylsulfones” (Onconova Therapeutics, Inc, priority 2007, dated 2013).

Key:
[1] = Infusion bag compatibility study; assay type: physicochemical; conditions: 75 mg/ml in PEG-400, bags containing 0.45% NaCl and 0.9% NaCl solutions
Experimental: This example summarizes the results of a compatibility study of ON 01910.Na drug product (75 mg/ml in PEG-400) in IV Infusion Bags and Sets containing 0.45% NaCl and 0.9% NaCl solutions. The study consisted of preparing solutions of 80 mg of the ON 01910.Na in 250 ml 0.9% NaCl, and 800 mg of ON01910.Na in 250 ml 0.45% NaCl, and storing them in IV infusion bags for over 24 hours to determine if there is any product loss or instability. The solutions were also passed through infusion sets at a rate of approximately 2 ml per minute for 120 minutes and monitored for product loss or instability.
The samples were analyzed by HPLC for Assay, % Recovery, and Impurities. Appearance, Osmolarity, and pH of the solutions were also monitored throughout the study. […]
Five ml of solution were removed from each bag for analysis at the following time points: T=0, 1 hr, 2 hr, 4 hr, 8 hr, and 24.5 hr. Appearance, Assay, % Impurities, % Recovery, Osmolarity, and pH were analyzed at each time points.
Results are shown in Tables 10-13. % Recovery is the percentage of drug substance as compared to the calculated amount, while % T0 is defined as the percentage of drug substance as compared to drug substance at the initial timepoint. […]

[2] = Accelerated stability in formulations containing PEG or PG and pH 10 buffer at 90° C. (HPLC); assay type: physicochemical; conditions: for % ON 01910.Na Remaining: 90° C.
Experimental: (§1) The effect of dielectric constant on the stabilization of ON 01910.Na, for example, was investigated, for example, by preparing formulations containing propylene glycol and PEG 400. The accelerated stability studies were preformed at 75 and 90° C. […] The following tables summarizes the results:
(§2) The samples were evaluated by an HPLC assay utilizing a Phenomenex Luna C-18, 5 micron (4.6 mm×250 mm) reverse phase column at ambient conditions. The mobile phase consisted of 60%-0.1% Trifluoroacetic Acid in water: 40% Acetonitrile. The flow rate was set to 2.0 ml/minute and the eluant was monitored at 230 nm

[3] = Solubility of the Na salt
[4] = Long term stability of 75 mg/mL ON 01910.Na in 100% PEG-400 (HPLC); assay type: physicochemical; conditions: 100% PEG-400 for clinical use
Experimental: ON 01910.Na IV solution was manufactured at a concentration of 75 mg/mL in 100% PEG-400. The finished product consisted of 3 mL of drug product aseptically filled into
presterilized 5 mL vials. The manufacturing was in compliance with current Good Manufacturing Practices regulations.
Visual Inspection (a) The zero-time data point is the same as the release data generated from the manufactured clinical lot. Analytical Methods: (a) HPLC—Chromatography is performed using a Phenomenex Luna C-18 (2), 5 micron
(4.6 mm×250 mm, PN 00G-4252-E0) column at ambient conditions. The mobile phase used is 60%-0.1% trifluoroacetic acid in water; 40% acetonitrile. The flow rate is set at 2.0 ml/min Injection volume is 50 μL. Detection is accomplished by means of a UV/VIS detector at 230, 254, and 320 nm. Instrument control and data acquisition is facilitated using a Waters Millennium (V 2.15) software package. The external calibration is obtained using ON 01910.Na standard solutions prepared in 50:50 acetonitrile:water. This analytical method was validated.

[5] = tested on: patients with advanced solid tumors; experiment: Phase I dose escalation study by 2-hour intravenous infusion; assay type: in vivo; conditions: iv 2 hour infusion, twice per week for 3 weeks, ten days off; no grade 2 or worse toxicities
Experimental: Safety and efficacy of this formulation, for example, is tested in a Phase I clinical study, at The Johns Hopkins Sidney Kimmel Cancer Center, Baltimore, Md., i.e., “Phase I Dose Escalation Study Of ON 01910.Na By 2-Hour Intravenous Infusion In Patients With Advanced Solid Tumors”. U.S. FDA IND #66,780. The objectives of this study include an identification of a maximum tolerated dose (MTD) and a recommended dose for further clinical studies. A further object of the study is to establish a safety profile, i.e., to observe any toxicities. The patients in this study have advanced solid tumors that have failed conventional treatments, or for which no approved therapy exists. An object of the study is particularly to observe efficacy (anti-cancer effects).
The patients are administered the preferred formulation described herein of the ON 01910.Na drug (properly diluted in intravenous solution) over a two hour period, twice per week, for three weeks. The patients are subsequently observed for […], to constitute a four week treatment cycle.
This study started with a single patient at the first starting dose level of 80 mg per patient. If there is no grade 2 or worse drug-related toxicity (side effects) observed in the first four week cycle, then another patient may be dosed at the next higher dose level. The first patient was dosed at 80 mg per patient on Aug. 3, 2004. […]

[6] = Accelerated stability of ON 01910.Na in formulations containing PEG at 75° C. (HPLC); assay type: physicochemical; conditions: for % ON 01910.Na Remaining: 75° C.
Experimental: as §1, §2

COc1cc(OC)c(/C=C/S(=O)(=O)Cc2ccc(OC)c(NCC(=O)[O-])c2)c(OC)c1.[Na+] [ON 01910.Na, (E)-2,4,6-trimethoxystyryl-3-carboxymethylamino-4-methoxybenzylsulfone]
stability in IV infusion bags [1]: stable over 24 hours | stability on adjusting the pH of the aqueous medium above 8 [2]: further improved | % ON 01910.Na Remaining ([2]; PEG:Buffer, After 72 hours): 94.22% | % ON 01910.Na Remaining ([2]; PEG:Buffer, Control): 100.00% | % ON 01910.Na Remaining ([2]; PEG:Water, After 72 hours): 22.28% | % ON 01910.Na Remaining ([2]; PEG:Water, Control): 100.00% | % ON 01910.Na Remaining ([2]; PG:Buffer, After 72 hours): 79.62% | % ON 01910.Na Remaining ([2]; PG:Buffer, Control): 100.00% | % ON 01910.Na Remaining ([2]; PG:Water, After 72 hours): 15.79% | % ON 01910.Na Remaining ([2]; PG:Water, Control): 100.00% | % ON 01910.Na Remaining ([2]; PH 10 buffer, After 72 hours): 50.18% | % ON 01910.Na Remaining ([2]; PH 10 buffer, Control): 100.00% | % ON 01910.Na Remaining ([2]; Water, After 72 hours): 5.36% | % ON 01910.Na Remaining ([2]; Water, Control): 100.00% | solubility [3]: very soluble | expected degradation over a two year period [4]: not be any Significant Degradation | long term stability in the current formulation [4]: Extremely Stable | dose that can be safely administered [5]: ≥ 2080 mg | % ON 01910.Na Remaining ([6]; 0% PEG, 0 D): 100.00% | % ON 01910.Na Remaining ([6]; 0% PEG, 0.25 D): 86.47% | % ON 01910.Na Remaining ([6]; 0% PEG, 2 D): 11.20% | % ON 01910.Na Remaining ([6]; 0% PEG, 7 D): 0.47% | % ON 01910.Na Remaining ([6]; 0% PEG, 14 D): 0.47% | % ON 01910.Na Remaining ([6]; 0% PEG, 28 D): 0.02% | % ON 01910.Na Remaining ([6]; 25% PEG, 0 D): 100.00% | % ON 01910.Na Remaining ([6]; 25% PEG, 0.25 D): 98.12% | % ON 01910.Na Remaining ([6]; 25% PEG, 2 D): 66.89% | % ON 01910.Na Remaining ([6]; 25% PEG, 7 D): 42.13% | % ON 01910.Na Remaining ([6]; 25% PEG, 14 D): 32.03% | % ON 01910.Na Remaining ([6]; 25% PEG, 28 D): 29.80% | % ON 01910.Na Remaining ([6]; 50% PEG, 0 D): 100.00% | % ON 01910.Na Remaining ([6]; 50% PEG, 0.25 D): 100.32% | % ON 01910.Na Remaining ([6]; 50% PEG, 2 D): 94.76% | % ON 01910.Na Remaining ([6]; 50% PEG, 7 D): 86.06% | % ON 01910.Na Remaining ([6]; 50% PEG, 14 D): 75.80% | % ON 01910.Na Remaining ([6]; 50% PEG, 28 D): 68.73% | stability on addition of propylene glycol or PEG 400 to an aqueous formulation ([6]; accelerated studies at 75 and 90° C.): drastically improved
